In patent US9255090B2, “Heterocyclyl derivatives and their use as prostaglandin D2 receptor modulators” (Actelion Pharmaceuticals Ltd., priority 2012, dated 2016):

Target: hCRTH2 receptor (Homo sapiens (Human), UniProt Q9Y5Y4)
Test: hCRTH2 receptor membranes radioligand (3H-PGD2) displacement assay
Assay type: binding
Conditions: 3H-PGD2 radioligand displacement, HEK293-hCRTH2 membranes
Method in brief: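 HEK293-hCRTH2 membranes, 20 μg/well; 3H-PGD2 added at 2.5 nM; binding buffer 50 mM Tris, 10 mM MnCl2, 1 mM EDTA, pH 7.0; 90 min RT; GF/C filtration, scintillation count. Nonspecific binding: PGD2 at […].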

hCRTH2 receptor, sequence (Q9Y5Y4 whole entry): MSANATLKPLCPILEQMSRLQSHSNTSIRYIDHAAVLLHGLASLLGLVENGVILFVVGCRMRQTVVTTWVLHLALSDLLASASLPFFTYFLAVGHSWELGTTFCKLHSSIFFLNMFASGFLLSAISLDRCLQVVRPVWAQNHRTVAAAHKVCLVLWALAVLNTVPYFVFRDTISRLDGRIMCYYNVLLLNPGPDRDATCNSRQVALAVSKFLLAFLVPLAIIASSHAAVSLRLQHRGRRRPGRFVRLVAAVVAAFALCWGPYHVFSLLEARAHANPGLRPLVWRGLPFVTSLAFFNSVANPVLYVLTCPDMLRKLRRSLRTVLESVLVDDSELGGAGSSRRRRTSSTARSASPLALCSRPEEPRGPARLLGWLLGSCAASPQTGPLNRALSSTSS

O=C(O)Cc1ccc(OC(F)(F)F)c(-c2ccc(F)c3c2CN(C(=O)[C@@H]2C[C@H]2c2ccccc2)CC3)c1 [Example 26, {3-[5-Fluoro-2-((1R,2R)-2-phenyl-cyclopropanecarbonyl)-1,2,3,4-tetrahydro-isoquinolin-8-yl]-4-trifluoromethoxy-phenyl}-acetic acid]
IC50: 3.07 nM

COc1ccc(CC(=O)O)cc1-c1ccc(F)c2c1CCN(C(=O)CCOc1ccccc1)C2 [Example 102, {3-[8-Fluoro-2-(3-phenoxy-propionyl)-1,2,3,4-tetrahydro-isoquinolin-5-yl]-4-methoxy-phenyl}-acetic acid]
IC50: 43 nM

CCOC(=O)N1CCc2c(F)ccc(-c3cc(CC(=O)O)ccc3OC)c2C1 [Example 141, 8-(5-Carboxymethyl-2-methoxy-phenyl)-5-fluoro-3,4-dihydro-1H-isoquinoline-2-carboxylic acid ethyl ester]
IC50: 187 nM

COc1ccc(CC(=O)O)cc1-c1ccc(F)c2c1CN(C(=O)/C=C/c1cc(C)nn1C)CC2 [Example 90, (3-{2-[(E)-3-(2,5-Dimethyl-2H-pyrazol-3-yl)-acryloyl]-5-fluoro-1,2,3,4-tetrahydro-isoquinolin-8-yl}-4-methoxy-phenyl)-acetic acid]
IC50: 49.1 nM

COc1ccc(CC(=O)O)cc1-c1ccc(F)c2c1CN(C(=O)CCn1cc(C)c3ccccc31)CC2 [Example 57, (3-{5-Fluoro-2-[3-(3-methyl-indol-1-yl)-propionyl]-1,2,3,4-tetrahydro-isoquinolin-8-yl}-4-methoxy-phenyl)-acetic acid]
IC50: 16.2 nM

O=C(O)Cc1ccc(Cl)cc1-c1ccc(F)c2c1CN(C(=O)OCc1ccccc1)CC2 [Example 416, 8-(2-Carboxymethyl-5-chloro-phenyl)-5-fluoro-3,4-dihydro-1H-isoquinoline-2-carboxylic acid benzyl ester]
IC50: 575 nM

COc1ccc(CC(=O)O)cc1-c1ccc(F)c2c1CCN(C(=O)CCc1ccccc1)C2 [Example 101, {3-[8-Fluoro-2-(3-phenyl-propionyl)-1,2,3,4-tetrahydro-isoquinolin-5-yl]-4-methoxy-phenyl}-acetic acid]
IC50: 64.7 nM

CCOc1cc(CC(=O)O)ccc1-c1ccc(F)c2c1CN(C(=O)CCc1ccccn1)CC2 [Example 349, {3-Ethoxy-4-[5-fluoro-2-(3-pyridin-2-yl-propionyl)-1,2,3,4-tetrahydro-isoquinolin-8-yl]-phenyl}-acetic acid]
IC50: 0.5 nM

CCOc1cc(CC(=O)O)ccc1-c1ccc(F)c2c1CN(C(=O)CCc1ccccc1F)CC2 [Example 317, (3-Ethoxy-4-{5-fluoro-2-[3-(2-fluoro-phenyl)-propionyl]-1,2,3,4-tetrahydro-isoquinolin-8-yl}-phenyl)-acetic acid]
IC50: 1.7 nM

COc1ccc(CC(=O)O)cc1-c1ccc(F)c2c1CCN(C(=O)OCc1ccccc1)CC2 [Example 17, 6-(5-Carboxymethyl-2-methoxy-phenyl)-9-fluoro-1,2,4,5-tetrahydro-benzo[d]azepine-3-carboxylic acid benzyl ester]
IC50: 141 nM

CCOc1cc(CC(=O)O)ccc1-c1ccc(F)c2c1CN(C(=O)C1CCc3cccc(OC)c3C1)CC2 (racemic) [Example 325]
IC50: 1.8 nM

O=C(O)Cc1ccc(F)c(-c2cccc3c2CN(C(=O)OCc2ccccc2)CC3)c1 [Example 23, 8-(5-Carboxymethyl-2-fluoro-phenyl)-3,4-dihydro-1H-isoquinoline-2-carboxylic acid benzyl ester]
IC50: 192 nM

COc1cc(CC(=O)O)ccc1-c1ccc(F)c2c1CN(C(=O)CCN1CCc3ccccc31)CC2 [Example 191, {4-[2-(3-2,3-Dihydro-indol-1-yl-propionyl)-5-fluoro-1,2,3,4-tetrahydro-isoquinolin-8-yl]-3-methoxy-phenyl}-acetic acid]
IC50: 2.42 nM

CCOc1cc(CC(=O)O)ccc1-c1ccc(F)c2c1CN(C(=O)NCCc1ccccc1)CC2 [Example 443, [3-Ethoxy-4-(5-fluoro-2-phenethylcarbamoyl-1,2,3,4-tetrahydro-isoquinolin-8-yl)-phenyl]-acetic acid]
IC50: 18.1 nM
